Values quoted from earlier work, collected in patent publication US20170333571A1, “Targeted Delivery Platform for Delivery of Therapeutics” (The Regents of the University of California, priority 2014, published 2017).
No end group written: not given here.

Test system: colitis-induced inflammation
Conditions: exogenous administration, rats and mice

Substance: Ucn1: small peptide (~38 aa), Urocortin 1 (DNPSLSIDLTFHLLRTLLELARTQSQRERAEQNRIIFDSV; ends and bridges not checked; also: 5FAM label, position not given here (in delivery test); UniProt P55089 83-122, looked up)
- colitis-induced inflammation: reduces colitis-induced inflammation
